Results taken from ChEMBL document CHEMBL3507680, “University of Dundee, Gates Library screen for HepG2 cell viability”.

assay: Human HepG2 cell viability assay in 384 well format; assay type: toxicity, cell-based; design: dose 125 nL, time 70.5 hour; cytotoxicity at 70.5 h: concentration not given beside the values; details: HepG2 cells, read-out: Inhibition

Q: With `O=C(CN1CCc2cncnc2C1)Nc1ccc(Cl)cn1` as the compound, how does the cytotoxicity at 70.5 h read?
A: 6.59%

Q: With `Cc1ccc(NC2CCN(C(=O)c3cc4c(s3)CCC4)CC2)nn1` as the compound, how does the cytotoxicity at 70.5 h read?
A: -13.9%

Q: Which cytotoxicity at 70.5 h does the source give for `CCc1ncc2c(n1)CN(CC(=O)Nc1nncs1)CC2` here?
A: -7.12%

Q: For `COc1ccc(S(=O)(=O)N2CCc3ccc(Cl)cc32)cc1C(=O)O`, which cytotoxicity at 70.5 h is on record?
A: 0.6%

Q: For `Cc1ccc(S(=O)(=O)N2CCc3ccc(F)cc32)cc1C(=O)O`, which cytotoxicity at 70.5 h is on record?
A: -6.54%

Q: Which cytotoxicity at 70.5 h does the source give for `COc1cc(S(=O)(=O)N2CCc3ccccc32)cc(C(=O)O)c1OC` here?
A: -5.58%

Q: For `COc1cc(S(=O)(=O)N2CCc3cc(Br)ccc32)cc(C(=O)O)c1OC`, which cytotoxicity at 70.5 h is on record?
A: -0.737%

Q: For `Cc1ccc(NC2CCN(C(=O)c3ccc(C(N)=O)s3)CC2)nn1`, which cytotoxicity at 70.5 h is on record?
A: -5.83%

Q: With `Fc1ccc(-c2nc(CN3CCn4c(nnc4C4CC4)C3)co2)cc1` as the compound, how does the cytotoxicity at 70.5 h read?
A: -8.13%

Q: Which cytotoxicity at 70.5 h does the source give for `Cc1ccc(-c2nc(CN3CCn4c(nnc4C4CC4)C3)co2)c(C)c1` here?
A: -5.17%

Q: With `Cc1oc(C)c(C(=O)N2CCCN(c3nccs3)CC2)c1C` as the compound, how does the cytotoxicity at 70.5 h read?
A: -5.97%

Q: Which cytotoxicity at 70.5 h does the source give for `O=C(c1ccc2nncn2c1)N1CCCCC1Cn1cccn1` (centres undefined) here?
A: 8.64%

Q: For `CCc1noc(C(C)N2CCN(S(=O)(=O)N3CCCC3)CC2)n1` (centres undefined), which cytotoxicity at 70.5 h is on record?
A: -8.69%

Q: Which cytotoxicity at 70.5 h does the source give for `CCc1noc(C(C)N2CCC(C)CC2)n1` (centres undefined) here?
A: -3.85%

Q: With `CCc1noc(C(C)N2CCN(CC(C)C)CC2)n1` (centres undefined) as the compound, how does the cytotoxicity at 70.5 h read?
A: 12.8%

Q: Which cytotoxicity at 70.5 h does the source give for `CCC1CN(Cc2cccc(C(=O)N(C)C)c2)CCN1CCOC` (centres undefined) here?
A: -8.03%

Q: With `CCn1ccnc1CN1CCCN(C(=O)c2cccn2C)CC1` as the compound, how does the cytotoxicity at 70.5 h read?
A: 23.9%

Q: Which cytotoxicity at 70.5 h does the source give for `Cn1cnc2c1CCN(Cc1cccc(C(N)=O)c1)C2` here?
A: -7.77%

Q: Which cytotoxicity at 70.5 h does the source give for `Cn1cc(CN2CCCN(C(=O)c3cc[nH]n3)CC2)cn1` here?
A: -9.96%

Q: For `CCc1nc(C2CCCN2C(=O)c2ncoc2CC)no1` (centres undefined), which cytotoxicity at 70.5 h is on record?
A: -5.48%

Q: Which cytotoxicity at 70.5 h does the source give for `CCc1[nH]ncc1C(=O)N1CCCC(n2nc(C)nc2C)C1` (centres undefined) here?
A: 19.7%

Q: With `COc1ccc(CNC(=O)N2CCC(Cc3cnn(C)c3)C2)cc1C` (centres undefined) as the compound, how does the cytotoxicity at 70.5 h read?
A: -3.46%

Q: For `O=C(NCc1nn(-c2ccccc2)c2c1CCC2)NC1CC1`, which cytotoxicity at 70.5 h is on record?
A: -19%

Q: Which cytotoxicity at 70.5 h does the source give for `Cc1cc(C)n(C2CCCN(C(=O)COCC(F)(F)F)C2)n1` (centres undefined) here?
A: -22.5%

Q: For `c1cnnc(N2CCCC2CNCc2nc(C3CC3)no2)c1` (centres undefined), which cytotoxicity at 70.5 h is on record?
A: -11.8%

Q: Which cytotoxicity at 70.5 h does the source give for `CC(=O)N(Cc1noc(C2CC2)n1)C1CCN(Cc2ccncc2)C1` (centres undefined) here?
A: 19.8%

Q: With `CCc1nc(C2CCCN2C(=O)c2nccnc2N)no1` (centres undefined) as the compound, how does the cytotoxicity at 70.5 h read?
A: -18.5%

Q: Which cytotoxicity at 70.5 h does the source give for `Cc1cnn(CC2CCCN2C(=O)c2ccc3nnc(C)n3c2)c1` (centres undefined) here?
A: -1.07%

Q: Which cytotoxicity at 70.5 h does the source give for `CCc1nc(C)ncc1C(=O)N1CCCC(n2nc(C)nc2C)C1` (centres undefined) here?
A: -12%

Q: For `CSC(C)C(=O)N1CCCN(Cc2cscn2)CC1` (centres undefined), which cytotoxicity at 70.5 h is on record?
A: 17.9%

Q: For `CC(Cn1ccnc1)NC(=O)NCCNC(=O)C(C)C` (centres undefined), which cytotoxicity at 70.5 h is on record?
A: 16.2%

Q: For `Cc1ccc(OCC(=O)NS(=O)(=O)c2cccnc2)cc1C`, which cytotoxicity at 70.5 h is on record?
A: 23.3%

Q: Which cytotoxicity at 70.5 h does the source give for `COc1cccc(CNCc2c(C(C)C)nn(C)c2N(C)C)c1OC` here?
A: -3.04%

Q: With `CC(C)Cc1noc(CN2CCN(CCO)CC2)n1` as the compound, how does the cytotoxicity at 70.5 h read?
A: -4.77%

Q: Which cytotoxicity at 70.5 h does the source give for `CC(C)Cc1noc(CN2CCOCC2)n1` here?
A: -0.996%

Q: For `Cc1nn(C)c(N(C)C)c1CNCc1cccc(OCCN(C)C)c1`, which cytotoxicity at 70.5 h is on record?
A: 27.3%

Q: For `CCn1ccnc1CN1CCN(CC(=O)NC(C)(C#N)C2CC2)CC1` (centres undefined), which cytotoxicity at 70.5 h is on record?
A: -6.12%

Q: Which cytotoxicity at 70.5 h does the source give for `CCn1ccnc1CN1CCN(CC(=O)NC(=O)NC2CC2)CC1` here?
A: -8.53%

Q: Which cytotoxicity at 70.5 h does the source give for `COc1ccc(OC)c(CCNC(=O)NC(C)Cn2ccnc2)c1` (centres undefined) here?
A: 22%

Q: Which cytotoxicity at 70.5 h does the source give for `CCOCC(O)CN1CCN(C(=O)Cc2ccccc2C)CC1` (centres undefined) here?
A: -1.93%

Q: For `COc1ccccc1CCNC(=O)CN1CCCC1c1noc(C)n1` (centres undefined), which cytotoxicity at 70.5 h is on record?
A: -3.07%

Q: Which cytotoxicity at 70.5 h does the source give for `Cc1cc(C)c(OCC(=O)NS(=O)(=O)c2cccnc2)c(C)c1` here?
A: -3.3%

Q: With `Cc1oc(C)c(C(=O)NCc2cccnc2N(C)C)c1C` as the compound, how does the cytotoxicity at 70.5 h read?
A: -12.5%

Q: Which cytotoxicity at 70.5 h does the source give for `Cc1cc(C)n(CC(=O)N2CCC(NS(C)(=O)=O)CC2)n1` here?
A: -11.4%

Q: Which cytotoxicity at 70.5 h does the source give for `CC(Cc1ccco1)NC(=O)Nc1ccc(N2CCOCC2)nc1` (centres undefined) here?
A: -4.87%

Q: For `COc1cc(CNC(=O)Nc2cc(C(F)(F)F)c[nH]c2=O)ccn1`, which cytotoxicity at 70.5 h is on record?
A: 1.69%

Q: With `N#Cc1cn(C2CC2)c(=O)n(CC(O)c2ccc(OC(F)F)cc2)c1=O` (centres undefined) as the compound, how does the cytotoxicity at 70.5 h read?
A: -17.5%

Q: With `Cc1cc(NC(=O)NCC(C)O)n(C)n1` (centres undefined) as the compound, how does the cytotoxicity at 70.5 h read?
A: 0.0779%

Q: For `Cc1cc(C)c(CNC(=O)N2CCN(c3cnccn3)CC2)c(=O)[nH]1`, which cytotoxicity at 70.5 h is on record?
A: -4.71%

Q: For `CCn1ccnc1CN1CCN(C(C)C(=O)NC2CCCCC2)CC1` (centres undefined), which cytotoxicity at 70.5 h is on record?
A: 33.2%

Q: With `O=C(c1cccc2c1OCCO2)N1CCCC(n2ccnc2)C1` (centres undefined) as the compound, how does the cytotoxicity at 70.5 h read?
A: -5.73%

Q: Which cytotoxicity at 70.5 h does the source give for `Cc1cc(NC(=O)NCC(O)c2ccc(Cl)cc2Cl)n(C)n1` (centres undefined) here?
A: -11.8%

Q: For `Cc1nnc2n1CCN(C(=O)c1cc(Cl)c(Cl)n1C)C2`, which cytotoxicity at 70.5 h is on record?
A: -3.86%

Q: For `CCc1nc(CC(=O)N2CCn3c(nnc3C(C)C)C2)cs1`, which cytotoxicity at 70.5 h is on record?
A: 0.586%

Q: Which cytotoxicity at 70.5 h does the source give for `CCOCC(O)CN1CCN(C(=O)Cc2ccccc2Cl)CC1` (centres undefined) here?
A: -0.667%

Q: For `CCc1nc(CC(=O)N2CCn3c(nnc3C(F)(F)F)C2)cs1`, which cytotoxicity at 70.5 h is on record?
A: -7.01%

Q: With `COc1ccccc1CC(=O)NCc1c(C)nc2cc(=O)[nH]n2c1C` as the compound, how does the cytotoxicity at 70.5 h read?
A: -8.5%

Q: For `c1ccc(-c2noc(CN3CCc4cncnc4C3)n2)nc1`, which cytotoxicity at 70.5 h is on record?
A: -9.29%

Q: Which cytotoxicity at 70.5 h does the source give for `Cc1nc(C2CCCN2CC(=O)NCCOc2ccccc2)no1` (centres undefined) here?
A: 0.566%

Q: For `COc1cc(CNc2cnn(C)c2)cc2c1OCCO2`, which cytotoxicity at 70.5 h is on record?
A: -4.12%

Q: Which cytotoxicity at 70.5 h does the source give for `Cc1ncsc1C(=O)N(C)Cc1cccc(Cl)c1` here?
A: 9.51%

Q: For `O=C(Cn1nc(-c2ccc(F)cc2)oc1=O)Nc1ccccc1`, which cytotoxicity at 70.5 h is on record?
A: 13.9%

Q: With `Cc1ccc(C(=O)Nc2cn[nH]c2)cn1` as the compound, how does the cytotoxicity at 70.5 h read?
A: -1.81%

Q: Which cytotoxicity at 70.5 h does the source give for `Cc1cc(CN(C)C(=O)NC2CCN(Cc3ccccc3)C2)no1` (centres undefined) here?
A: 7.2%

Q: For `CN(Cc1ccccc1O)C(=O)NC1CCCN(c2ncccn2)C1` (centres undefined), which cytotoxicity at 70.5 h is on record?
A: 22.3%

Q: Which cytotoxicity at 70.5 h does the source give for `CCn1cc(NC(=O)NCC(O)COc2cccc(F)c2)cn1` (centres undefined) here?
A: -4.45%

Q: With `CCN(CC)C(=O)Cn1ccc2cc(NC(=O)C3CCCO3)ccc21` (centres undefined) as the compound, how does the cytotoxicity at 70.5 h read?
A: 7.81%

Q: Which cytotoxicity at 70.5 h does the source give for `CC(=O)c1cccc(OCCCC(=O)NCC2CCCN2C)c1` (centres undefined) here?
A: 7.09%

Q: With `CC(Cn1ccnc1)NC(=O)N1CCN(Cc2cccnc2)CC1` (centres undefined) as the compound, how does the cytotoxicity at 70.5 h read?
A: 0.583%

Q: For `Cc1nc(CNC(=O)Cn2nc(-c3ccc(F)cc3)oc2=O)cs1`, which cytotoxicity at 70.5 h is on record?
A: 0.339%

Q: For `CSc1sc(NC(=O)Cc2c(C)nc(C)[nH]c2=O)nc1C`, which cytotoxicity at 70.5 h is on record?
A: 3.66%

Q: Which cytotoxicity at 70.5 h does the source give for `O=C(Nc1ncn(CC(=O)N2CCCCCC2)n1)C1CCCO1` (centres undefined) here?
A: 2.64%

Q: For `NC(=O)c1cnn2c1NCC(CNCCCOc1ccccc1F)C2` (centres undefined), which cytotoxicity at 70.5 h is on record?
A: 6.81%

Q: With `Cc1ccc(C(=O)N2CCN(C(=O)NC(C)Cn3ccnc3)CC2)o1` (centres undefined) as the compound, how does the cytotoxicity at 70.5 h read?
A: -4.96%

Q: Which cytotoxicity at 70.5 h does the source give for `CC(C)c1nnc2n1CCN(C(=O)CN1Cc3ccccc3C1=O)C2` here?
A: 4.15%

Q: For `NC(=O)c1cnn2c1NCC(CNCCc1ccco1)C2` (centres undefined), which cytotoxicity at 70.5 h is on record?
A: -1.07%

Q: Which cytotoxicity at 70.5 h does the source give for `Cc1cnn(CC2CCCCN2Cc2noc(C3CC3)n2)c1` (centres undefined) here?
A: -6.32%

Q: For `Cc1nc(C)n(CC2CN(c3nnc(C)c(C)c3C#N)CCO2)n1` (centres undefined), which cytotoxicity at 70.5 h is on record?
A: 5.76%

Q: Which cytotoxicity at 70.5 h does the source give for `CNS(=O)(=O)c1ccc(C(=O)NC2CCc3nc(C)cn3C2)o1` (centres undefined) here?
A: -6.79%

Q: For `Cc1cn2c(n1)CCC(NC(=O)c1ccc(CS(C)(=O)=O)cc1)C2` (centres undefined), which cytotoxicity at 70.5 h is on record?
A: -1.89%

Q: For `CN(C(=O)NCc1ccncc1)C1CCN(c2ccccc2)C1=O` (centres undefined), which cytotoxicity at 70.5 h is on record?
A: 11.5%

Q: With `O=C(Nc1ccccc1F)N(CCO)Cc1ccsc1` as the compound, how does the cytotoxicity at 70.5 h read?
A: 31.8%

Q: With `Cc1ncsc1C(=O)N(C)CCc1ccncc1` as the compound, how does the cytotoxicity at 70.5 h read?
A: -2.51%

Q: For `CC(=O)N1CCN(Cc2csc(-c3cnn(C)c3)n2)CC1`, which cytotoxicity at 70.5 h is on record?
A: 2.34%
